The test has as its target T1, mTLR9 (Mus musculus, UniProt Q9EQU3).
T1 construct: Splenocytes isolated from male C57/BL6 mice; from tissue; host or cells: splenocytes from the spleen of male C57BL/6 mice
T1 sequence (Q9EQU3 26-1032): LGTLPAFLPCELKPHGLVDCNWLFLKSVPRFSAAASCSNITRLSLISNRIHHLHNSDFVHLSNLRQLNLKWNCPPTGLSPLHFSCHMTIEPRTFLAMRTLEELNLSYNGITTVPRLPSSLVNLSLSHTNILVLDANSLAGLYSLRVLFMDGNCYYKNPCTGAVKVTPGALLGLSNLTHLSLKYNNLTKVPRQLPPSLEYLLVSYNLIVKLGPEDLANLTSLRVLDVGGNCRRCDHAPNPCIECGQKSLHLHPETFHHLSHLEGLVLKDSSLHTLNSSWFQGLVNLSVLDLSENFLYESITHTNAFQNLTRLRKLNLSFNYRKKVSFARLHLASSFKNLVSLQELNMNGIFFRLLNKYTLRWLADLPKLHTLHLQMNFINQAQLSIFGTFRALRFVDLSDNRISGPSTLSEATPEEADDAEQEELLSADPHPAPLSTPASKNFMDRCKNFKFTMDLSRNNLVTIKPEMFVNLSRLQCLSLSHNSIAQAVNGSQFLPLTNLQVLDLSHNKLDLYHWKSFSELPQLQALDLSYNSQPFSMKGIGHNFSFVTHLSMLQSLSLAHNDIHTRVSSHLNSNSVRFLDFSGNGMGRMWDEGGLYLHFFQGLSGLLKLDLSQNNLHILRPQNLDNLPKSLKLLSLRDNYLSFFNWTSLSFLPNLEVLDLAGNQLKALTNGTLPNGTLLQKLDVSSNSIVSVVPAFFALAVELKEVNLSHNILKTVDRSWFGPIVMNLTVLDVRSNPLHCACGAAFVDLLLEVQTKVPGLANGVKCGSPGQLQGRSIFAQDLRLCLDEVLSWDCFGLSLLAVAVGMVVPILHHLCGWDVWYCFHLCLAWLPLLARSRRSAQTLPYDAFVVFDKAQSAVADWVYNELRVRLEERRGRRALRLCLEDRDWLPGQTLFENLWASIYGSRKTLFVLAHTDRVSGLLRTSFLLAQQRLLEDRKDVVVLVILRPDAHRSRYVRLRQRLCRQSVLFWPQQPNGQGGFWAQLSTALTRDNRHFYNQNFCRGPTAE
Briefly: mTLR9 antagonism (IL-6 and TNF-α release assay) in mouse splenocytes, CpG ODN-2006 stimulated. The test is classed as cell-based. The conditions noted are these: 1 μM, mouse splenocytes. The text has this: mTLR9 and mTLR7 Antagonism (Cytokine Release Assay) in Mouse Splenocytes
TLR7 ligand R0006 (IDT, 5′-rU*rU*rG*rU*rU*rG*rU*rU*rG*rU*rU*rG*rU*rU*rG*rU*rU*rG*rU*rU-3′ (SEQ ID NO:1)), Liposomal transfection reagent—DOTAP (Roche, Cat. No. 11202375001), TLR9 ligand CpG ODN2006 (Sequence: T*C*G*T*C*G*T*T*T*T*G*T*C*G*T*T*T*T*G*T*C*G*T*T; *=phosphorothioate (SEQ ID NO:2)) DMSO (Sigma, D2650), RPMI Powder (Sigma, R6504), Fetal Bovine Serum (Gibco, 10270), Dulbecco's Phosphate Buffered Saline (Sigma, D1408), 96 well plate (Flat bottom, Costar 3599), ELISA kit for IL-6 (EBioscience, 88-7064-77 and TNFa (EBioscience, 88-7346-88), MACS Buffer (AutoMACS Rinsing Solution (Miltenyl Biotec, 130-091-222)+0.05% BSA), RBC lysis buffer (0.85% NH4Cl), 40 μm cell strainer (BD Falcon, 352340) Method: A. Isolation of Mouse Splenocytes
Mouse spleen was isolated from C57BL6 mouse and stored in 1× chilled PBS buffer until further processed. Spleen was transferred to a sterile petriplate and chopped in to 5-6 pieces in presence of MACS buffer (100 μl) with the help of fresh surgical blade and crushed with flat plunger of a sterile syringe. A uniform suspension was prepared by passing cells through a 40 μm cell strainer. Cells were centrifuged at 450×g for 5 minutes at 4° C., supernatant was discarded and pellet dislodged gently, resuspended in 2 ml of pre-warmed (37° C.) RBC lysis buffer at room temperature with continuous gentle mixing with 1 ml pipette. Lysis buffer was neutralized with 12 ml of chilled MACS buffer and cells were passed through 40 μm cell strainer. Cell suspension was collected in 15 ml MACS buffer and centrifuged at 450×g for 5 minutes at 4° C. Pellet was resuspended in 15 ml MACS buffer and centrifuged at 400×g for 5 minutes. Cells were resuspended in 10 ml of RPMI complete medium and viability was estimated by Trypan blue method.
mTLR9 Antagonism (IL-6 and TNF-α Release Assay):
500 μM stock of CpG ODN-2006 was prepared in sterile, endotoxin-free water. Dilutions of 10× concentrations of NCEs were prepared in incomplete RPMI media, maintaining a final DMSO concentration of 0.3%. NCEs were added in a concentration range of 30 μM to 1 nM in respective wells of assay plate, assay medium containing 0.3% DMSO were added to control wells. 0.2 million splenocytes were added to all the wells and incubated at 37° C. in 5% CO2 incubator for 30 minutes. 1 μg/ml of respective agonist was added to all the wells except those were assigned as negative controls and mixed thoroughly. Incomplete RPMI was added to negative control wells and incubated overnight at 37° C./5% CO2. The plate was centrifuged at 450×g for 5 minutes at room temperature and the supernatant was collected. ELISA was performed as per manufacturer's protocol. S/B Ratio, % Activity and % Inhibition was calculated using MS Excel. IC50 and inhibition curve was generated using Graph Pad Prism.

The mark [1] stands for this setting: IL-6 release, read-out: mTLR9 inhibitory activity (% at 1 μM), IL-6.
The mark [2] stands for this setting: TNF-α release, read-out: mTLR9 inhibitory activity (% at 1 μM), TNF-α.

Like-named read-outs stand apart in the source and are kept apart here.

With `CC(C)N1CCN(c2ccc(-c3nccc4[nH]c(CN5CCOCC5)cc34)cc2)CC1` [Example A1, 4-[[4-[4-(4-isopropylpiperazin-1-yl)phenyl]-1H-pyrrolo[3,2-c]pyridin-2-yl]methyl]morpholine], the inhibition at 1 µM under setting [1] came out at 100% and the inhibition at 1 µM under setting [2] was 94%.

On to `CN1CCN(c2ccc(-c3nccc4[nH]c(CN5CCOCC5)cc34)cc2)CC1` [Example A2, 4-[[4-[4-(4-methylpiperazin-1-yl)phenyl]-1H-pyrrolo[3,2-c]pyridin-2-yl]methyl] morpholine], for which the inhibition at 1 µM runs as follows: under setting [1], 100%; under setting [2], 94%.

With `CCN1CCN(c2ccc(-c3nccc4[nH]c(CN5CCOCC5)cc34)cc2)CC1` [Example A3, 4-[[4-[4-(4-ethylpiperazin-1-yl)phenyl]-1H-pyrrolo[3,2-c]pyridin-2-yl]methyl] morpholine], the inhibition at 1 µM runs as follows: under setting [1], 100%; under setting [2], 85%.

With `Cc1cc2[nH]c(CN3CCOCC3)cc2c(-c2ccc(N3CCN(C(C)C)CC3)cc2)n1` [Example A4, 4-[[4-[4-[4-isopropylpiperazin-1-yl)phenyl]-6-methyl-1H-pyrrolo[3,2-c]pyridin-2-yl]methyl] morpholine], the inhibition at 1 µM is, setting by setting: under setting [1], 100%; under setting [2], 100%.

For the compound `CCN1CCN(c2ccc(-c3nc(C)cc4[nH]c(CN5CCOCC5)cc34)cc2)CC1` [Example A5, 4-[[4-[4-(4-ethylpiperazin-1-yl)phenyl]-6-methyl-1H-pyrrolo[3,2-c]pyridin-2-yl]methyl] morpholine], the inhibition at 1 µM under setting [1] was found to be 100% and the inhibition at 1 µM under setting [2] was 91%.

As to `CC(C)N1CCN(c2ccc(-c3nccc4c3cc(CN3CCOCC3)n4C)cc2)CC1` [Example A8, 4-[[4-[4-(4-isopropylpiperazin-1-yl)phenyl]-1-methyl-pyrrolo[3,2-c]pyridin-2-yl]methyl] morpholine], under setting [2], the inhibition at 1 µM was determined as 100%.

As for `CN1CCN(c2ccc(-c3nccc4c3cc(CN3CCOCC3)n4C)cc2)CC1` [Example A9, 4-[[1-methyl-4-[4-(4-methylpiperazin-1-yl)phenyl]pyrrolo[3,2-c]pyridin-2-yl]methyl] morpholine], under setting [2], the inhibition at 1 µM turned out to be 94%.

Regarding `CC(C)N1CCN(c2ccc(-c3nccc4[nH]c(CN5CCC(O)CC5)cc34)cc2)CC1` [Example A12, 1-[[4-[4-(4-isopropylpiperazin-1-yl)phenyl]-1H-pyrrolo[3,2-c]pyridin-2-yl]methyl] piperidin-4-ol], the inhibition at 1 µM was 95% under setting [1] and 52% under setting [2].

`CC(C)N1CCN(c2ccc(-c3nccc4[nH]c(CN5CCC6(CC5)CC(O)C6)cc34)cc2)CC1` [Example A13, 7-[[4-[4-(4-isopropylpiperazin-1-yl)phenyl]-1H-pyrrolo[3,2-c]pyridin-2-yl]methyl]-7-azaspiro[3.5] nonan-2-ol]: the inhibition at 1 µM reads like this: under setting [1], 100%; under setting [2], 91%.

Regarding `CC(C)N1CCN(c2ccc(-c3nccc4[nH]c(CN5CC(F)C5)cc34)cc2)CC1` [Example A16, 2-[(3-fluoroazetidin-1-yl)methyl]-4-[4-(4-isopropylpiperazin-1-yl)phenyl]-1H-pyrrolo[3,2-c]pyridine], the inhibition at 1 µM turned out to be 100% under setting [1] and 100% under setting [2].

As for `CC(C)N1CCN(c2ccc(-c3nccc4[nH]c(CN5CCCCC5)cc34)cc2)CC1` [Example A17, 4-[4-(4-isopropylpiperazin-1-yl)phenyl]-2-(1-piperidylmethyl)-1H-pyrrolo[3,2-c]pyridine], the inhibition at 1 µM reads like this: under setting [1], 100%; under setting [2], 100%.

On to `CC(C)N1CCN(c2ccc(-c3nccc4[nH]c(CN5CCC(F)CC5)cc34)cc2)CC1` [Example A24, 2-[(4-fluoro-1-piperidyl)methyl]-4-[4-(4-isopropylpiperazin-yl)phenyl]-1H-pyrrolo[3,2-c] pyridine], for which the inhibition at 1 µM under setting [2] turned out to be 100%.

As to `CN1CCN(c2ccc(-c3nccc4[nH]c(CN5CCC(F)CC5)cc34)cc2)CC1` [Example A25, 2-[(4-fluoro-1-piperidyl)methyl]-4-[4-(4-methylpiperazin-1-yl)phenyl] - 1H-pyrrolo[3,2-c]pyridine], the inhibition at 1 µM is, setting by setting: under setting [1], 100%; under setting [2], 100%.

As for `Cc1cc2[nH]c(Cn3cccn3)cc2c(-c2ccc(N3CCN(C(C)C)CC3)cc2)n1` [Example A28, 4-[4-(4-isopropylpiperazin-1-yl)phenyl]-6-methyl-2-(pyrazol-1-ylmethyl)-1H-pyrrolo[3,2-c]pyridine], the inhibition at 1 µM under setting [1] stood at 100% and the inhibition at 1 µM under setting [2] came out at 100%.

As for `Cc1cc2[nH]c(CN3CCC4(CC3)CC(O)C4)cc2c(-c2ccc(N3CCN(C(C)C)CC3)cc2)n1` [Example A29, 7-[[4-[4-(4-isopropylpiperazin-1-yl)phenyl]-6-methyl-1H-pyrrolo[3,2-c]pyridin-2-yl]methyl]-7-azaspiro[3.5] nonan-2-ol], the inhibition at 1 µM reads like this: under setting [1], 96%; under setting [2], 64%.

Take `Cc1cc2[nH]c(CN3CCC4(CC3)CC(C)C4)cc2c(-c2ccc(N3CCN(C(C)C)CC3)cc2)n1` [Example A30, 4-[4-(4-isopropylpiperazin-1-yl)phenyl]-6-methyl-2-[(2-methyl-7-azaspiro[3.5]nonan-7-yl)methyl]-1H-pyrrolo[3,2-c]pyridine]: the inhibition at 1 µM is 100% under setting [1] and 100% under setting [2].

As for `CC(C)N1CCN(c2ccc(-c3nc(C4CC4)cc4[nH]c(CN5CCOCC5)cc34)cc2)CC1` [Example A33, 4-[[6-cyclopropyl-4-[4-(4-isopropylpiperazin-1-yl)phenyl]-1H-pyrrolo[3,2-c]pyridin-2-yl]methyl] morpholine], the inhibition at 1 µM under setting [2] amounted to 85%.

`CN1CCN(c2ccc(-c3nc(C4CC4)cc4[nH]c(CN5CCOCC5)cc34)cc2)CC1` [Example A34, 4-[[6-cyclopropyl-4-[4-(4-methylpiperazin-1-yl)phenyl]-1H-pyrrolo[3,2-c]pyridin-2-yl]methyl] morpholine]: the inhibition at 1 µM under setting [2] was 93%.

For `Cc1cc2c(cc(CN3CCOCC3)n2C)c(-c2ccc(N3CCN(C(C)C)CC3)cc2)n1` [Example A35, 4-[[4-[4-(4-isopropylpiperazin-1-yl]phenyl]-1,6-dimethyl-pyrrolo[3,2-c]pyridin-2-yl]methyl] morpholine], the inhibition at 1 µM under setting [1] came to 100% and the inhibition at 1 µM under setting [2] was determined as 90%.

Source of the values: patent US9643967B2, “Pyrrolo[3,2-c]pyridine derivatives as TLR inhibitors” (TAKEDA PHARMACEUTICAL COMPANY LIMITED, priority 2013, dated 2017).
